In patent publication US8802692B2, “Synergistic effects between sphingosine-1-phosphate receptor antagonists and antimicrotubule agents” (Exelixis, Inc., priority 2008, dated 2014):

Assays:
Assay type in all cases: in vivo, Nude mice
[1] = tested on: human MDA-MB-231 breast cancer cells (ATCC#HTB-26); test: MDA-MB-231 breast cancer xenograft, S1P1R antagonist + docetaxel; details: docetaxel alone 7 mg/kg q3d ip; start 96 mgs
Experimental: In this experiment, a maximum efficacy dose of an S1P1R receptor antagonist was used with an optimal dose of docetaxol (Haorui Pharma Chem, Inc; CAS#114977-28-5). Compound #2, 50, 52, or 75 were used in these experiments. Nude mice (athymic female mice, Taconic Farms, Inc., 10 animals per group) were inoculated subcutaneously with human MDA-MB-231 breast cancer cells (ATCC#HTB-26) (1×10^6 cells per animal). After tumors were allowed to grow for 17 days, one group of animals was treated with docetaxel at a dose of 7 mg/kg q3d ip. One group of animals was treated with a specific dose of S1P1R receptor antagonist and the same dose of docetaxel using the same schedule used for the individual docetaxel group. Finally, a control group was treated with the vehicles used for each agent individually. Tumor dimensions were measured by calipers and then converted to weight using the formula: tumor weight (mg)=[tumor volume=length (mm)×width^2(mm^2)]/2. Animals were also monitored for weight loss as an indicator of signs of toxicity. The S1P1R receptor antagonist was formulated in a composition containing 10% NMP (n-methyl pyrrolidone)+90% corn oil. […]
Cells were inoculated subcutaneously on day 0 and allowed to grow for 17 days. […] Dosing continued for 7 cycles (q3d) and tumors in each of the three groups were measured and averaged. […]

[2] = tested on: human MDA-MB-231 breast cancer cells (ATCC# HTB-26); test: MDA-MB-231 breast cancer xenograft, S1P1R antagonist + vincristine; details: start 95 mgs
Experimental: In this experiment, a maximum efficacy dose of an S1P1R receptor antagonist was used with doses of vincristine (Yes Pharma, Ltd., CAS#2068-78-2, Lot#80702). Compound #2, 50, 52, or 75 were used in these experiments. Nude mice (athymic female mice, Taconic Farms, Inc., 10 animals per group) were inoculated subcutaneously with human MDA-MB-231 breast cancer cells (ATCC# HTB-26) (1×10^6 cells per animal). After tumors were allowed to grow for 19 days, two groups of animals were treated with vincristine at doses of 0.1 or 1 mg/kg q3d iv. One group of animals was treated with a specific concentration of S1P1R receptor antagonist. Two groups of animals were treated with a specific dose of S1P1R receptor antagonist and the same dose of vincristine using the same schedule used for the individual vincristine groups. Finally, a control group was treated with the vehicles used for each agent individually. Tumor dimensions were measured by calipers and then converted to weight using the formula: tumor weight (mg)=[tumor volume=length (mm)×width^2(mm^2)]/2. Animals were also monitored for weight loss as an indicator of signs of toxicity. […]
Cells were inoculated subcutaneously on day 0 and allowed to grow for 19 days. […] Dosing continued for 8 cycles (q3d) and tumors in each of the six groups were measured and averaged. […]

[3] = tested on: human non-small cell lung carcinoma cells (ATCC #HTB-56); test: Non-small cell lung carcinoma xenograft (Calu-6 XN model), S1P1R antagonist + paclitaxel; details: paclitaxel alone 15 mg/kg q3d ip; dosing day 9 to day 31; control about 1500 mgs
Experimental: In this experiment, a maximum efficacy dose of an S1P1R receptor antagonist was used with an optimal dose of paclitaxel (MP Biomedicals cat #193532). Nude mice (athymic female mice, Taconic Farms, Inc., 10 animals per group) were inoculated subcutaneously with human non-small cell lung carcinoma cells (ATCC #HTB-56) (1×10^6 cells per animal). After tumors were allowed to grow for 9 days, one group of animals was treated with a S1P1R receptor antagonist (100 mg/kg qd po). A second group of animals was treated with paclitaxel at a dose of 15 mg/kg q3d ip. A third group of animals was treated with a S1P1R receptor antagonist and paclitaxel using the same dose and schedule used for the individual agents. A fourth control group was treated with the vehicles used for each agent individually. Tumor dimensions were measured by calipers and then converted to weight using the formula: tumor weight (mg)=[tumor volume=length (mm)×[…]]/2. Animals were also monitored for weight loss as an indicator of signs of toxicity. […]
Cells were inoculated subcutaneously on day 0 and allowed to grow for 9 days. […] Dosing continued until day 31 and tumors from some animals in each of the four groups were measured and averaged. Some animals in the paclitaxel group and the combined treatment group were monitored after treatment stopped for a period of time. […]

[4] = tested on: human MDA-MB-231 cells breast cancer cells (ATCC #HTB-26); test: MDA-MB-231 breast cancer xenograft, S1P1R antagonist + paclitaxel; details: paclitaxel alone 7.5 mg/kg q3d ip; start 100 mgs
Experimental: In this experiment, 4 different doses of an S1P1R receptor antagonist, 0.3 mgs/kg, 3 mgs/kg, 10 mgs/kg or 30 mgs/kg was used with an optimal dose of paclitaxel (MP Biomedicals cat #193532). Nude mice (athymic female mice, Taconic Farms, Inc., 10 animals per group) were inoculated subcutaneously with human MDA-MB-231 cells breast cancer cells (ATCC #HTB-26) (1×10^6 cells per animal). After tumors were allowed to grow for 21 days, one group of animals was treated with paclitaxel at a dose of 7.5 mg/kg q3d ip. Four groups of animals were treated with a specific concentration of S1P1R receptor antagonist and the same concentration of paclitaxel using the same schedule used for the individual paclitaxel group. Finally, a control group was treated with the vehicles used for each agent individually. Tumor dimensions were measured by calipers and then converted to weight using the formula: tumor weight (mg)=[tumor volume=length (mm)×[…]]/2. Animals were also monitored for weight loss as an indicator of signs of toxicity. The S1P1R Receptor antagonist was formulated in a compostion containing 10% NMP (n-methyl pyrrolidone)+90% corn oil. […]
Cells were inoculated subcutaneously on day 0 and allowed to grow for 21 days. […] Dosing continued for 19 days and tumors in each of the four groups were measured and averaged. […]

CC(=O)O[C@@]12CO[C@@H]1C[C@H](O)[C@@]1(C)C(=O)[C@H](O)C3=C(C)[C@@H](OC(=O)[C@H](O)[C@@H](NC(=O)OC(C)(C)C)c4ccccc4)C[C@@](O)([C@@H](OC(=O)c4ccccc4)[C@H]21)C3(C)C [docetaxel]
average tumor weight after 7 cycles of treatment [1]: about 310 mgs

CC[C@]1(O)C[C@H]2CN(CCc3c([nH]c4ccccc34)[C@@](C(=O)OC)(c3cc4c(cc3OC)N(C=O)[C@H]3[C@@](O)(C(=O)OC)[C@H](OC(C)=O)[C@]5(CC)C=CCN6CC[C@]43[C@@H]65)C2)C1 [vincristine]
average tumor weight after 8 cycles of treatment ([2]; vincristine alone 0.1 mg/kg q3d iv): 659 mg | average tumor weight after 8 cycles of treatment ([2]; vincristine alone 1 mg/kg q3d iv): 26 mg

CC(=O)O[C@H]1C(=O)[C@@]2(C)[C@H]([C@H](OC(=O)c3ccccc3)[C@]3(O)C[C@H](OC(=O)[C@H](O)[C@@H](NC(=O)c4ccccc4)c4ccccc4)C(C)=C1C3(C)C)[C@]1(OC(C)=O)CO[C@@H]1C[C@@H]2O [paclitaxel]
average tumor weight after treatment [3]: about 550 mgs | average tumor weight after 19 days of treatment [4]: about 325 mgs
